# Legend:
# HIF-2α = HIF-2α protein (Western blot) and mRNA expression in IMR90 cells; type: cell-based, human
# Text: As a result, it was observed that the HIF-2α protein decreased in the nutlin 3b-treated group and the BI-D1870-treated group (upper diagram and lower diagram in FIG. 22).
# An oncogenic Ras was introduced into young cells (within 1 month of continuous culture) of IMR90 cells to induce senescent cells (OIS). […] It is known that ubiquitination is induced by phosphorylation in the vicinity of a ubiquitination site (Hagai et al., 2012). The consensus sequences (K/R-K/R-x-x-S/T) for phosphorylation by Chk1 located at the N-terminus of HIF-2α were conserved, and these were named Motif1 (including Ser12 residues) and Motif2 (including Ser19 residues) (FIG. 40, SEQ ID NOs: 77 to 81).
# PGAM-Chk1 binding [1] = target: T1, PGAM-Chk1 binding (Homo sapiens, UniProt O14757+P18669); assay: Nano-Bit PGAM-Chk1 binding in young and etoposide-induced senescent IMR90 cells; type: cell-based; details: etoposide-induced senescent IMR90 cells; 20 μM or 40 μM for 48 hours
# T1 construct: expressed in transfected cells
# T1 sequence (P18669 whole entry): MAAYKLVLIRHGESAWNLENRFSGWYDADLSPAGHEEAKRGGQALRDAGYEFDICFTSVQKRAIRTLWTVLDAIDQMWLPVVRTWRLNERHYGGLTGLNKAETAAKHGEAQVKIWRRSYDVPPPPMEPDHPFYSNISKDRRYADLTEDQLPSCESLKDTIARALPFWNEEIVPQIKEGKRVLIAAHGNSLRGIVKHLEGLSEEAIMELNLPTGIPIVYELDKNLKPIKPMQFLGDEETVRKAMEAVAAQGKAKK
# T1 sequence (O14757 whole entry): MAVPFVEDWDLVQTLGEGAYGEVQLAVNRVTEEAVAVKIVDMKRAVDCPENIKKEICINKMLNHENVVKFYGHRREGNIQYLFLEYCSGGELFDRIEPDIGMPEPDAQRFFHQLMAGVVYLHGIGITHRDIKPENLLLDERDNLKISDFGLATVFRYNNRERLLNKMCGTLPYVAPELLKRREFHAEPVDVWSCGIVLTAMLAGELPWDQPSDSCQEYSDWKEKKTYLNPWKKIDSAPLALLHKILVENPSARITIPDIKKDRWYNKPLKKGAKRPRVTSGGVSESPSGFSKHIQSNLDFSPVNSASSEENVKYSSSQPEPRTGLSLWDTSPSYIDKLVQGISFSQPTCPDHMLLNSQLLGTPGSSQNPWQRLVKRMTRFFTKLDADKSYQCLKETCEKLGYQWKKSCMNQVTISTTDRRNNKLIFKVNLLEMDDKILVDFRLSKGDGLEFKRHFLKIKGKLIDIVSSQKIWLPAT
# Method: In addition, PGAM and Chk1 kinase genes tagged with Nano-Bit tags were introduced into IMR90 cells to prepare a cell line capable of stable expression Young cells (within 1 month of continuous culture) of the IMR90 cells were treated with 100 uM etoposide for 48 hours to induce cellular senescence.
# IMR90 cells = assay: Senolysis / cell death of young and Ras-induced senescent IMR90 cells; type: cell-based, human
# Text: Ras gene with oncogenic mutation was introduced into young cells (within 1 month of continuous culture) of IMR90 cells by retroviral infection to acquire senescent cells. […] The control received only DMSO treatment. Representative images of cells observed under a microscope are shown (FIG. 11).
# An oncogenic mutated Ras gene was introduced into young cells (within 1 month of continuous culture) of IMR90 cells by retroviral infection to acquire stress-induced senescent cells. The young cells and the senescent cells were both treated with different concentrations of the RSK kinase inhibitor BI-D1870 for 96 hours to evaluate cell death.
# An oncogenic mutated Ras gene was introduced into young cells (within 1 month of continuous culture) of IMR90 cells by retroviral infection to acquire stress-induced senescent cells. The young cells and the senescent cells of IMR90 were both transfected with an RSK1 siRNA (two types of siRNA #1 (SEQ ID NO: 7) or #2 (SEQ ID NO: 8) having different target sequences) or a control to knock down RSK1. Representative images of cells observed under a microscope are shown (upper diagram in FIG. 20).
# An oncogenic Ras was introduced into young cells (within 1 month of continuous culture) of IMR90 cells to induce senescent cells (OIS). The young cells and the senescent cells of IMR90 were transfected with two HIF-2α-specific siRNAs (SEQ ID NO: 9 and SEQ ID NO: 10) having different target sequences to knock down HIF-2α.
# An oncogenic Ras was introduced into young cells (within 1 month of continuous culture) of IMR90 cells to induce senescent cells (OIS). The young cells and the senescent cells of IMR90 were transfected with a BIM-specific siRNA to knock down BIM.
# An oncogenic Ras was introduced into young cells (within 1 month of continuous culture) of IMR90 cells to induce senescent cells (OIS). In the young cells and the senescent cells of IMR90, HIF-2α alone or both HIF-2α and BIM were knocked down by using their respective specific siRNAs (SEQ ID NO: 9, SEQ ID NO: 10), and cell death was confirmed (FIG. 28).
# (§1) The latter information consists of 12,655 ChIP datasets from 903 antigens (transcription factors and epigenetic regulators).
# PGAM-Chk1 binding [2] = target: T1, PGAM-Chk1 binding; assay: Nano-Bit PGAM-Chk1 binding in cancer cell line H1299; type: cell-based; details: H1299 cells; 40 μM for 12, 24, and 48 hours
# Text: PGAM and Chk1 kinase genes tagged with Nano-Bit tags were introduced into the cancer cell line H1299 to prepare a cell line capable of stable expression. […] The treated cells were used to measure intracellular luciferase luminescence signals by Nano-Bit for each.
# senescent cells = assay: Transcriptome / microarray / mRNA analysis of nutlin 3b-treated senescent cells; type: cell-based, human
# Method: as §1
# A microarray dataset on nutlin 3b-treated senescent cells was analyzed for 202 genes (GO:0042981) classified as regulation of the apoptotic process.
# In the Fox family, FoxO protein is deeply involved in the senescence process.
smiles,measurement,setting,value
COc1ccc(C2=N[C@H](c3ccc(Cl)cc3)[C@H](c3ccc(Cl)cc3)N2C(=O)N2CCNC(=O)C2)c(OC(C)C)c1 [nutlin 3b],HIF-2α protein expression,HIF-2α; senescent (OIS) IMR90 cells,suppressed
same,influence on HIF-2α mRNA,HIF-2α; senescent (OIS) IMR90 cells,relatively small
same,HIF-2α protein,"HIF-2α; young and senescent cells, different concentrations for 96 hours",decreased
same,potentiation of PGAM-Chk1 binding (intracellular luminescence signals of Nano-Bit),PGAM-Chk1 binding [1],suppressed by the nutlin 3b treatment in a dose-dependent manner
same,senolysis by nutlin 3b treatment in BIM knockdown cells,"IMR90 cells; IMR90 cells transfected with BIM-specific siRNA, nutlin 3b 96 hours",rescued by BIM knockdown
same,cell death observed under a microscope,"IMR90 cells; young and Ras-induced senescent IMR90 cells, 40 μM for 72 hours","young cells are normal, but senescent cells selectively die"
same,senolytic effect (cell death),"IMR90 cells; young and senescent IMR90 cells, 96 hours, 20 or 40 μM",remarkable senolytic effect
same,luciferase luminescence signal by Nano-Bit (PGAM-Chk1 binding),PGAM-Chk1 binding [2],treatment time-dependent decrease
same,"expression of FOXM1, FOXF1, FOXC1, FOXL1, FOXL2, FOXD1, FOXB2, FOXI2, and FOXN1",senescent cells; nutlin 3b treatment,downregulated
same,"expression of FOXO1, FOXP1, FOXH1, FOXF2, FOXO4, FOXO3, FOXJ3, FOXQ1, FOXK2, FOXN3, FOXO6, FOXK1, FOXP4, FOXN2, and FOXJ2",senescent cells; nutlin 3b treatment,upregulated
same,expression of FOXO1 and FOXP1,senescent cells; nutlin 3b treatment,remarkably upregulated
same,Survivin protein,senescent cells; nutlin 3b-treated senescent cells,downregulated
same,downregulation of Survivin/BIRC5,"senescent cells; nutlin 3b-treated senescent cells, microarray",about 30 fold
same,FoxM1 mRNA among FOX transcription family members,senescent cells; senescent cells,most dramatically downregulated
same,"mRNAs for FoxM1 transcription targets (CCNB1, B2, D1, PLK1, ASPM, CEP55)",senescent cells; senescent cells,significantly affected

# From patent US20250003952A1, “SENOLYTIC DRUG SCREENING METHOD AND SENOLYTIC DRUG” (KYOTO UNIVERSITY, priority 2021, published 2025)
